Assay results from patent US20240317723A1, “SUBSTITUTED AMINO AZA-HETEROARYL COMPOUNDS AS INHIBITORS OF THE HAEMATOPOIETIC PROGENITOR KINASE 1 (HPK1)” (priority 2021, published 2024).

What was measured:
Lck (h) = Lck (h) (Homo sapiens, UniProt P06239); experiment: Lck Human STE Kinase Enzymatic Radiometric Assay; type: biochemical; conditions: for IC50: radiometric, [gamma-33P]-ATP, Cdc2 peptide substrate, read-out: Lck IC50, nM Range*; for Selectivity: selectivity for inhibition of HPK1 vs Lck
Protocol: (b) Lck Human STE Kinase Enzymatic Radiometric Assay
Lck (h) is incubated with 50 mM Tris pH 7.5, 0.1 mM EGTA, 0.1 mM Na3VO4, 250 uM KVEKIGEGTYGVVYK (Cdc2 peptide), 10 mM MgAcetate and [gamma-33P]-ATP (specific activity and concentration as required). The reaction is initiated by the addition of the Mg/ATP mix. After incubation for 40 minutes at room temperature, the reaction is stopped by the addition of phosphoric acid to a concentration of 0.5%. 10 uL of the reaction is then spotted onto a P30 filtermat and washed four times for 4 minutes in 0.425% phosphoric acid and once in methanol prior to drying and scintillation counting. For more details on the kinase assay procedures see: Gao, Y. et. al.; Biochem J., 451 (2): 313-328, 2013.
In some embodiments the presence of substituents on monocyclic Cy^2 rings or when Cy^2 is a bicyclic ring (unsubstituted or substituted) provides compounds with improved selectivity for inhibition of HPK1 vs Lck (see, for example, Table 3 and Table 4).

[1] = molecular target: T1, Recombinant (1-346) HPK1 (h) (Homo sapiens, UniProt Q92918); experiment: HPK1 Human STE Kinase Enzymatic Radiometric Assay; type: biochemical; conditions: [gamma-33P]-ATP, myelin basic protein substrate, read-out: HPK1 IC50 nM Range*
T1 construct: Recombinant (1-346) HPK1 (h) is incubated with 8 mM MOPS pH 7.0
T1 sequence (Q92918 1-346): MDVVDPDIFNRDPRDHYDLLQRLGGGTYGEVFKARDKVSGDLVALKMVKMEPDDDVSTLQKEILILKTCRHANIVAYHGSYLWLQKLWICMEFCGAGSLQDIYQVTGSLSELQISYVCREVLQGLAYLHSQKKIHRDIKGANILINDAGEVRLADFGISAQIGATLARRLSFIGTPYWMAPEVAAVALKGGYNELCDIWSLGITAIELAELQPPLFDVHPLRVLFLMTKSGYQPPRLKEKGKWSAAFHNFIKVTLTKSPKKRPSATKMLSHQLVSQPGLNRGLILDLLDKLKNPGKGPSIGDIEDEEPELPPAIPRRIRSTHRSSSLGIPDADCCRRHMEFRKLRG
Protocol: (a) HPK1 Human STE Kinase Enzymatic Radiometric Assay
A stock solution of 10 mM of test compound is prepared in DMSO. The compound plate was prepared by 3-fold and 9-point serial dilutions. Recombinant (1-346) HPK1 (h) is incubated with 8 mM MOPS pH 7.0, 0.2 mM EDTA, 0.33 mg/mL myelin basic protein, 10 mM MgAcetate and [gamma-33P]-ATP (specific activity and concentration as required). The reaction is initiated by the addition of the Mg/ATP mix. After incubation for 40 minutes at RT, the reaction is stopped by the addition of phosphoric acid to a concentration of 0.5%. 10 uL of the reaction is then spotted onto a P30 filtermat and washed four times for 4 minutes in 0.425% phosphoric acid and once in methanol prior to drying and scintillation counting. For more details of kinase assay protocols, see: Gao, Y. et. al.; Biochem J. 451 (2): 313-328, 2013.

Lck (h), sequence (P06239 whole entry): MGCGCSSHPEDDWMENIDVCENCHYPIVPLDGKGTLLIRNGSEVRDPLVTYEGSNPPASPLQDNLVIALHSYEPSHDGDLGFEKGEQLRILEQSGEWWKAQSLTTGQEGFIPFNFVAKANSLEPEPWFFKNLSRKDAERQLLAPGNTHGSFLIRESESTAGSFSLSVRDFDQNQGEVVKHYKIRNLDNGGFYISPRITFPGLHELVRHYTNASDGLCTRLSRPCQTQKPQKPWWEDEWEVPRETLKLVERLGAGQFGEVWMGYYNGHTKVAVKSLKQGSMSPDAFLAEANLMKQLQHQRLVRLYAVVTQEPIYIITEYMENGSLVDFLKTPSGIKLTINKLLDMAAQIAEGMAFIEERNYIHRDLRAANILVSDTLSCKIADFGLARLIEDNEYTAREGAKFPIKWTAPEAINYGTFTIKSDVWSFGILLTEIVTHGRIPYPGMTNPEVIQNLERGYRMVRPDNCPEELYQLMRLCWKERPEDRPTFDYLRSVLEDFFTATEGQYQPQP

| IC50 (Lck (h)) | IC50 [1] | Selectivity (Lck (h)) | Structure (SMILES) |
| --- | --- | --- | --- |
| 11 to 20 nM | 0.1 to 5 nM |  | CN([C@H]1CCN(c2ccc(-c3cnc(N)c(-c4ccc5c(c4)CCNC5=O)n3)cc2)C1)S(C)(=O)=O [Example I-10, (S)-N-(1-(4-(5-amino-6-(1-oxo-1,2,3,4-tetrahydroisoquinolin-6-yl)pyrazin-2-yl)phenyl)pyrrolidin-3-yl)-N-methylmethanesulfonamide] |
|  | 0.1 to 5 nM |  | Cc1cc2cc(-c3nc(-c4ccc(N5CCN(C)CC5)cc4)cnc3N)ccc2c(=O)[nH]1 [Example I-51, 6-(3-amino-6-(4-(4-methylpiperazin-1-yl)phenyl)pyrazin-2-yl)-3-methylisoquinolin-1(2H)-one] |
| 21 to 200 nM | 0.1 to 5 nM |  | CC(C)C1CCCN(c2ccc(-c3cnc(N)c(-c4ccc5c(c4)CCNC5=O)n3)cc2)C1 (stereo not shown) [Example I-24, 6-(3-amino-6-(4-(3-isopropylpiperidin-1-yl)phenyl)pyrazin-2-yl)-3,4-dihydroisoquinolin-1(2H)-one] |
| 11 to 20 nM | 0.1 to 5 nM |  | CC(=O)N1CCN(c2ccc(-c3cnc(N)c(-c4ccc5c(c4)CCNC5=O)n3)cc2)CC1 [Example I-19, 6-(6-(4-(4-acetylpiperazin-1-yl)phenyl)-3-aminopyrazin-2-yl)-3,4-dihydroisoquinolin-1(2H)-one] |
| 11 to 20 nM | 0.1 to 5 nM |  | Nc1ncc(-c2ccc(C3CCN(CC(F)(F)F)CC3)cc2)nc1-c1ccc2c(c1)CCNC2=O [Example I-36, 6-(3-amino-6-(4-(1-(2,2,2-trifluoroethyl)piperidin-4-yl)phenyl)pyrazin-2-yl)-3,4-dihydroisoquinolin-1(2H)-one] |
| 11 to 20 nM | 0.1 to 5 nM |  | Nc1ncc(-c2ccc(N3C[C@@H]4C[C@H]3CN4CC(F)(F)F)cc2)nc1-c1ccc2c(c1)CCNC2=O [Example I-34, 6-(3-amino-6-(4-((1S,4S)-5-(2,2,2-trifluoroethyl)-2,5-diazabicyclo[2.2.1]heptan-2-yl)phenyl)pyrazin-2-yl)-3,4-dihydroisoquinolin-1(2H)-1-one] |
| 6 to 10 nM | 0.1 to 5 nM |  | CC(C)[C@@H]1CN(c2ccc(-c3cnc(N)c(-c4ccc5c(c4)CCNC5=O)n3)cc2)CCN1C [Example I-38, (R)-6-(3-amino-6-(4-(3-isopropyl-4-methylpiperazin-1-yl)phenyl)pyrazin-2-yl)-3,4-dihydroisoquinolin-1(2H)-one] |
|  |  | 31 | Nc1ncc(-c2ccc(N3CCOCC3)cc2)nc1-c1ccc2c(c1)CCNC2=O [Comparator 1, 6-(3-amino-6-(4-morpholinophenyl)pyrazin-2-yl)-3,4-dihydroisoquinolin-1(2H)-one, reference compound] |
|  | 6 to 10 nM |  | Cc1nc2cc(-c3nc(-c4ccc(N5CCN(C)CC5)cc4)cnc3N)ccc2c(=O)[nH]1 [Example I-57, 7-(3-amino-6-(4-(4-methylpiperazin-1-yl)phenyl)pyrazin-2-yl)-2-methylquinazolin-4(3H)-one] |
| 6 to 10 nM | 0.1 to 5 nM |  | CC(C)[C@H]1CN(c2ccc(-c3cnc(N)c(-c4ccc5c(c4)CCNC5=O)n3)cc2)CCN1C [Example I-40, (S)-6-(3-amino-6-(4-(3-isopropyl-4-methylpiperazin-1-yl)phenyl)pyrazin-2-yl)-3,4-dihydroisoquinolin-1(2H)-one] |
| 11 to 20 nM | 0.1 to 5 nM | 170 | CC(C)[C@H]1CN(c2ccc(-c3cnc(N)c(-c4ccc5c(c4)CCNC5=O)n3)cc2)CCO1 [Example I-8, (S)-6-(3-amino-6-(4-(2-isopropylmorpholino)phenyl)pyrazin-2-yl)-3,4-dihydroisoquinolin-1(2H)-one] |
| 11 to 20 nM | 0.1 to 5 nM |  | CN1C[C@H]2C[C@@]2(c2ccc(-c3cnc(N)c(-c4cc5c(cc4F)C(=O)NCC5)n3)cc2)C1 [Example I-45, 6-(3-amino-6-(4-((1R,5S)-3-methyl-3-azabicyclo[3.1.0]hexan-1-yl)phenyl)pyrazin-2-yl)-7-fluoro-3,4-dihydroisoquinolin-1(2H)-one] |
| 6 to 10 nM | 0.1 to 5 nM |  | CN1CCN(c2ccc(-c3cnc(N)c(-c4ccc5c(c4)CCCNC5=O)n3)cc2)CC1 [Example I-50, 7-(3-amino-6-(4-(4-methylpiperazin-1-yl)phenyl)pyrazin-2-yl)-2,3,4,5-tetrahydro-1H-benzo[c]azepin-1-one] |
| 21 to 200 nM | 0.1 to 5 nM |  | CC(C)[C@@H]1CN(c2ccc(-c3cnc(N)c(-c4cc5c(cc4F)C(=O)NCC5)n3)c(F)c2)CCO1 [Example I-29, (R)-6-(3-amino-6-(2-fluoro-4-(2-isopropylmorpholino)phenyl)pyrazin-2-yl)-7-fluoro-3,4-dihydroisoquinolin-1(2H)-one] |
|  | 6 to 10 nM |  | CN(C)Cc1cc(C2CCOCC2)ccc1-c1cnc(N)c(-c2cc3c(cc2F)C(=O)NCC3)n1 [II-1, 6-(3-amino-6-(2-((dimethylamino)methyl)-4-(tetrahydro-2H-pyran-4-yl)phenyl)pyrazin-2-yl)-7-fluoro-3,4-dihydroisoquinolin-1(2H)-one] |
|  | 0.1 to 5 nM |  | Cc1c[nH]c(=O)c2cc(F)c(-c3nc(-c4ccc(C5CCOCC5)c(CN(C)C)c4)cnc3N)cc12 [II-2, 6-(3-amino-6-(3-((dimethylamino)methyl)-4-(tetrahydro-2H-pyran-4-yl)phenyl)pyrazin-2-yl)-7-fluoro-4-methylisoquinolin-1(2H)-one] |
|  | 0.1 to 5 nM |  | C[C@@H]1CN(c2ccc(-c3cnc(N)c(-c4ccc5c(c4)CCNC5=O)n3)cc2)C[C@H](C)N1C [Example I-55, 6-(3-amino-6-(4-((3R,5S)-3,4,5-trimethylpiperazin-1-yl)phenyl)pyrazin-2-yl)-3,4-dihydroisoquinolin-1(2H)-one] |
|  | 0.1 to 5 nM |  | CCN1CCN(c2ccc(-c3cnc(N)c(-c4ccc5c(c4)CCNC5=O)n3)cc2)CC1 [Example I-56, 6-(3-amino-6-(4-(4-ethylpiperazin-1-yl)phenyl)pyrazin-2-yl)-3,4-dihydroisoquinolin-1(2H)_-one] |
|  |  | 930 | Nc1ncc(-c2ccc(N3CCOCC3)c(F)c2F)nc1-c1ccc2c(c1)CCNC2=O [Comparator 2, 6-(3-amino-6-(2,3-difluoro-4-morpholinophenyl)pyrazin-2-yl)-3,4-dihydroisoquinolin-1(2H)-one, reference compound] |
|  | 0.1 to 5 nM |  | C[C@@H]1CN(C)CCN1c1ccc(-c2cnc(N)c(-c3ccc4c(c3)CCNC4=O)n2)cc1 [Example I-54, (R)-6-(3-amino-6-(4-(2,4-dimethylpiperazin-1-yl)phenyl)pyrazin-2-yl)-3,4-dihydroisoquinolin-1(2H)-one] |
|  |  | 405 | Nc1ncc(-c2ccc(N3CCOCC3)cc2F)nc1-c1ccc2c(c1)CCNC2=O [Comparator 4, 6-(3-amino-6-(2-fluoro-4-morpholinophenyl)pyrazin-2-yl)-3,4-dihydroisoquinolin-1(2H)-one, reference compound] |
|  | 0.1 to 5 nM |  | Cc1cc2cc(-c3nc(-c4ccc(C5CCOCC5)c(CN(C)C)c4)cnc3N)cc(F)c2c(=O)[nH]1 [II-4, 6-(3-amino-6-(3-((dimethylamino)methyl)-4-(tetrahydro-2H-pyran-4-yl)phenyl)pyrazin-2-yl)-8-fluoro-3-methylisoquinolin-1(2H)-one] |
|  | 0.1 to 5 nM |  | CC(C)N1CCN(c2ccc(-c3cnc(N)c(-c4ccc5c(c4)CCNC5=O)n3)cc2)[C@H](C)C1 [Example I-53, (R)-6-(3-amino-6-(4-(4-isopropyl-2-methylpiperazin-1-yl)phenyl)pyrazin-2-yl)-3,4-dihydroisoquinolin-1(2H)-one] |
|  | 0.1 to 5 nM |  | Cc1[nH]c(=O)c2c(F)cc(-c3nc(-c4ccc(C5CCOCC5)c(CN(C)C)c4)cnc3N)cc2c1F [II-5, 6-(3-amino-6-(3-((dimethylamino)methyl)-4-(tetrahydro-2H-pyran-4-yl)phenyl)pyrazin-2-yl)-4,8-difluoro-3-methylisoquinolin-1(2H)-one] |
|  | 21 to 200 nM |  | CN1CCN(c2ccc(-c3cc(-c4ccc5c(c4)CCNC5=O)c(N)nn3)cc2)CC1 [Example I-49, 6-(3-amino-6-(4-(4-methylpiperazin-1-yl)phenyl)pyridazin-4-yl)-3,4-dihydroisoquinolin-1(2H)-one] |
